Residues, ends and D or L forms follow the SMILES beside them. No end group written: not given here.
Key:
E. coli K-12 = experiment: Bacterial cell viability, lux luminescence and OD600, with or without LPS; assay type: cell-based, Escherichia coli; settings: co-incubation with 2.5 μM Aeromonas salmonicida LPS
Source text: To evaluate the effect of antimicrobial peptides on the viability of bacteria in a fast and reliable manner we used the lux CDABE operon from Photorhabdus luminescens as a reporter system in gram negative test bacteria and the modified luxABCDE operon in S. aureus (Vesterlund et al. 2004). Bacterial bioluminescence is directly dependent on metabolic activity, since reduction equivalents are needed to drive light emission. Any form of interruption of bacterial cell integrity or metabolism will therefore be detected as a reduction in light emission.
For the assay we used S. aureus (RN4220), E. coli K-12 and Salmonella enterica serovar typhimurium (ATCC 14028) transformed with the respective lux-operon containing plasmids (Vesterlund et al. 2004).
For each experiment a fresh colony was picked from Luria-Bertani plates supplemented with 10 μg/ml of erythromycin in case of S. aureus and with 100 μg/ml of ampicillin in case of E. coli and S. enterica serovar Typhimurium. Each colony was suspended in 5 ml of Müller-Hinton medium with appropriate antibiotics. The culture was incubated over night at 37° C. in a shaking incubator. The next morning 0.5 ml of this culture was transferred to 30 ml fresh MH medium in an Erlenmeyer-flask supplemented with the respective antibiotic. The flask was incubated (200 rpm shaking; 37° C.) until an OD600 of 0.5-0.8 was reached. The culture was then diluted to an OD600 of about 0.02-0.03 before transfer to the 96 well opaque plates with optical bottom (Packard ViewPlate) used for the assay.
The synthesized peptides were dissolved in water and aliquots frozen at −18° C. until use. Twofold dilutions of test peptides (final concentrations ranging from 0.31 to 80 μM) were directly prepared in 96 well microtiter plates in a volume of 10 μl in water. 90 μl is of indicator bacteria in MH medium were added directly to the prepared and pre-warmed (30 minutes at 37° C.) plate before starting the measurement in a Victor multiplate reader (Perkin Elmer) at 37° C. Both OD600 and luminescence in counts per second (cps) were followed over 5 hours in measuring intervals of 5 minutes. The plates where shaken before each measurement (20 sec.; 5 mm orbital shaking; 10 sec waiting). The growth curves and light emission curves were drawn and evaluated to determine the MIC for each indicator strain. The MIC was defined as the concentration of test compound causing more than 50% reduction in bioluminescence (cps) or optical density (OD600) after 5 hours, compared to the growth control. Cecropin P1 was used as positive control. […]
A second plate with an otherwise similar setup (as described for the luminescence assay in example 3) was prepared, but with addition of Aeromonas salmonicida LPS to the peptide dilutions before pre-warming. […]

THP-1 cells = experiment: in vitro; assay type: cell-based, human
Experimental: The toxicity of test peptides on THP-1 cells was measured using the MIT method (Mosmann, 1983), with minor modifications. To induce monocyte-macrophage differentiation, THP-1 cells were cultured in 96-well culture plates (10^6 cells/well) in a volume of 100 μl RPMI 1640 medium, containing 50 ng/ml PMA (which is known to induce the maturation of monocytes) and incubated in a humidified atmosphere of 5% CO2 at 37° C. for 48 hours. The medium was then removed and the cells were washed with PBS, added 100 μl fresh medium (without PMA) and incubated for another 24 hours. Medium was removed and the adherent macrophages were treated with 100 μl of peptide solution (concentrations ranging from 0 to 800 μg/ml), diluted in RPMI-1640 assay medium without FBS. After incubation at 37° C. for 1 hour, the cells were added LPS (0.1 μg/ml) and further incubated for 4 hours. Cells treated with Triton X-100 (1%) were used as positive control (100% killing) whereas cells plus medium only were used as negative control. Following the incubation period, 10 μl MTT (5 mg/ml) dissolved in phosphate-buffered saline (PBS) was added to each well, and the plate was further incubated for 2 hours. A volume of 70 μl of the supernatant was then removed and 100 μl acid alcohol (0.04 M HCl in isopropanol) added to each well to dissolve the dark blue crystals. The plate was placed on a shaker for 1 hour at room temperature and read spectrophotometrically at 595 nm in a microtiter plate reader (DTX880 Multimode Detector, Beckman Coulter). Cell survival (%) was then determined from the ΔA595 nm relative to negative control (100% living cells) and expressed as 50% inhibitory concentration (IC50). The IC50 values were estimated from the dose-response curves, which were obtained by averaging at least 3 parallel experiments.

[1] = tested on: C. glutamicum (ATCC 13032); assay type: cell-based, Corynebacterium glutamicum
How it was run: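 Peptide fractions were incubated with actively growing bacteria in Mueller Hinton medium at a starting concentration of 3×10^4 cells per ml. Growth was monitored continuously in a Bioscreen C reader; polymyxin B served as reference.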

| Molecule | MIC, more than 50% reduction in optical density, E. coli, P + LPS (E. coli K-12; OD600, 5 hours) | MIC, more than 50% reduction in luminescence, E. coli, P + LPS (E. coli K-12; luminescence (cps), 5 hours) | Toxicity to THP-1 cells TC50 (THP-1 cells) | Minimal inhibitory concentration, C. glutamicum [1] |
| --- | --- | --- | --- | --- |
| CC[C@H](C)[C@H](NC(=O)CNC(=O)[C@H](CO)NC(=O)[C@H](CCCCN)NC(=O)[C@@H](NC(=O)[C@H](C)NC(=O)[C@H](Cc1c[nH]cn1)NC(=O)[C@H](CO)NC(=O)[C@@H](NC(=O)[C@H](CCCCN)NC(=O)[C@H](Cc1c[nH]cn1)NC(=O)[C@H](Cc1ccccc1)NC(=O)[C@@H](NC(=O)[C@H](CCCCN)NC(=O)[C@H](CCCCN)NC(=O)[C@H](Cc1ccccc1)NC(=O)C(Cc1c[nH]c2ccc(Br)cc12)NC(=O)CN)[C@@H](C)O)C(C)C)C(C)C)C(=O)N[C@@H](Cc1c[nH]cn1)C(=O)N[C@@H](C)C(=O)O (stereo partly shown) [P17 HC-Br (1-20)] (HELM PEPTIDE1{G.[O=C(C(Cc1c[nH]c2ccc(Br)cc12)N[*:1])[*:2]].F.K.K.T.F.H.K.V.S.H.A.V.K.S.G.I.H.A}$$$$V2.0; N-terminus and C-terminus assumed) | 40 µM | 20 µM |  |  |
| GWFKKTFHKVSHAVKSGIHA [P17 HC (1-20)] |  |  | —^b | 1.56 µM |
